We go through nine molecules from patent US20080275032A1, “Pyridazinone compounds” (priority 2006, published 2008).

SMILES strings stand for the structures.

HCV NS5B polymerase, sequence (P26663 2420-3010): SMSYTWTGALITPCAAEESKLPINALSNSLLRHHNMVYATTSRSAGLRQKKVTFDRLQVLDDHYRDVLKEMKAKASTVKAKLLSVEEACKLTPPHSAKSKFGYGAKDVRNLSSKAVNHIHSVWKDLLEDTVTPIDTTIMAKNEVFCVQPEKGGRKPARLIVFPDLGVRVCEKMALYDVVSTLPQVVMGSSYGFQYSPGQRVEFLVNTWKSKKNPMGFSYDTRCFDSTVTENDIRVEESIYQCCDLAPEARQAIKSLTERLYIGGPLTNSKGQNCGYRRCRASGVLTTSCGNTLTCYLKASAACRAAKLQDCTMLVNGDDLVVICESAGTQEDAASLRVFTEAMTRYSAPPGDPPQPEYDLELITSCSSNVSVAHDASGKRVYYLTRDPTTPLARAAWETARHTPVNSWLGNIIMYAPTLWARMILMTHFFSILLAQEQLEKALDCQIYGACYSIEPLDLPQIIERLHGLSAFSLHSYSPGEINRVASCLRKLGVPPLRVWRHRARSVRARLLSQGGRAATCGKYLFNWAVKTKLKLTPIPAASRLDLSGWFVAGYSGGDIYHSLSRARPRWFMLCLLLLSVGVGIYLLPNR

This experiment addresses HCV NS5B polymerase (Hepatitis C virus genotype 1b, UniProt P26663). As to the kind of experiment: biochemical. Conditions: HCV polymerase inhibition, 50 nM enzyme, 2 h at room temperature, FlashPlate [α-33P]GTP incorporation. How it is done: NS5B Polymerase Inhibition Assay (IC50)
Compounds were tested for HCV polymerase inhibition. Assays were performed in a 96-well streptavidin-coated FlashPlate using 50 nM enzyme, 0.5 μCi of [α-^33P]GTP, 0.6 μM GTP, and 50 nM 5′biotinylated oligo (rG13)/poly rC in 20 mM Tris-HCl, pH 7.5, 5 mM MgCl2, 20 mM NaCl, 5 mM dithiothreitol, and 0.1 g/L BSA. The reaction was stopped by aspiration after 2 h at room temperature and the plate was washed several times. After washing, incorporated radioactivity was counted using a Microbeta scintillation counter.
A word on the IC50: it is the concentration that inhibits the measured activity by half. In the case of `CC(C)CCn1nc(-c2cccs2)c(O)c(C2=Nc3ccc(N(COC(=O)C(C)(C)C)S(C)(=O)=O)cc3S(=O)(=O)N2)c1=O` [2,2-Dimethyl-propionic acid ({3-[5-hydroxy-2-(3-methyl-butyl)-3-oxo-6-thiophen-2-yl-2,3-dihydro-pyridazin-4-yl]-1,1-dioxo-1,2-dihydro-1λ^6-benzo[1,2,4]thiadiazin-7-yl}-methanesulfonyl-amino)-methylester], the IC50 lay within 100 to 1000 nM.

As for `CC(C)CCn1nc(-c2cncs2)c(O)c(C2=Nc3ccc(NS(=O)(=O)C4CC4)cc3S(=O)(=O)N2)c1=O` [Cyclopropanesulfonic acid {3-[5-hydroxy-2-(3-methyl-butyl)-3-oxo-6-thiazol-5-yl-2,3-dihydro-pyridazin-4-yl]-1,1-dioxo-1,2-dihydro-1λ^6-benzo[1,2,4]thiadiazin-7-yl}-amide], the IC50 is less than 100 nM.

`CC(C)(C)c1nn(Cc2ccc(F)c(Cl)c2)c(=O)c(C2=Nc3ccc(NS(C)(=O)=O)cc3S(=O)(=O)N2)c1O` [N-{3-[6-tert-Butyl-2-(3-chloro-4-fluoro-benzyl)-5-hydroxy-3-oxo-2,3-dihydro-pyridazin-4-yl]-1,1-dioxo-1,2-dihydro-1λ^6-benzo[1,2,4]thiadiazin-7-yl}-methanesulfonamide] showed an IC50 of 100 to 1000 nM.

The molecule `CN(c1ccc2c(c1)S(=O)(=O)NC(c1c(O)c(-c3cccs3)nn(CC3(C(F)(F)F)CC3)c1=O)=N2)S(C)(=O)=O` [N-{3-[5-Hydroxy-3-oxo-6-thiophen-2-yl-2-(1-trifluoromethyl-cyclopropylmethyl)-2,3-dihydro-pyridazin-4-yl]-1,1-dioxo-1,2-dihydro-1λ^6-benzo[1,2,4]thiadiazin-7-yl}-N-methyl-methanesulfonamide] displayed a concentration for half-maximal inhibition (IC50) of less than 100 nM.

Turning to `CC(C)CCn1nc(-c2cccs2)c(O)c(C2=Nc3ccc(NCCS(N)(=O)=O)cc3S(=O)(=O)N2)c1=O` [2-{3-[5-Hydroxy-2-(3-methyl-butyl)-3-oxo-6-thiophen-2-yl-2,3-dihydro-pyridazin-4-yl]-1,1-dioxo-1,2-dihydro-1λ^6-benzo[1,2,4]thiadiazin-7-ylamino}-ethanesulfonic acid amide], the IC50 lay in the range of 100 to 1000 nM.

Molecule `C/C(=C\c1nn(CCC(C)C)c(=O)c(C2=NS(=O)(=O)c3cc(NS(C)(=O)=O)ccc3N2)c1O)C(F)(F)F` [N-{3-[5-Hydroxy-2-(3-methyl-butyl)-3-oxo-6-(3,3,3-trifluoro-2-methyl-propenyl)-2,3-dihydro-pyridazin-4-yl]-1,1-dioxo-1,2-dihydro-1λ^6-benzo[1,2,4]thiadiazin-7-yl}-methanesulfonamide] gave a half-inhibitory concentration (IC50) of 100 to 1000 nM.

In turn, `CC(C)CCn1nc(CC2=CCCC2)c(O)c(C2=NS(=O)(=O)c3cc(NS(C)(=O)=O)ccc3N2)c1=O` [N-{3-[6-Cyclopent-1-enylmethyl-5-hydroxy-2-(3-methyl-butyl)-3-oxo-2,3-dihydro-pyridazin-4-yl]-1,1-dioxo-1,2-dihydro-1λ^6-benzo[1,2,4]thiadiazin-7-yl}-methanesulfonamide] came in with a concentration for half-maximal inhibition (IC50) of 100 to 1000 nM.

`CC(C)CCn1nc(CCC2OCCCO2)c(O)c(C2=Nc3ccc(NS(C)(=O)=O)cc3S(=O)(=O)N2)c1=O` [N-{3-[6-(2-[1,3]Dioxan-2-yl-ethyl)-5-hydroxy-2-(3-methyl-butyl)-3-oxo-2,3-dihydro-pyridazin-4-yl]-1,1-dioxo-1,2-dihydro-1λ^6-benzo[1,2,4]thiadiazin-7-yl}-methanesulfonamide] had an IC50 of 100 to 1000 nM.

With `CC(C)CCn1nc(-c2cncs2)c(O)c(C2=NS(=O)(=O)c3cc(NS(C)(=O)=O)ccc3N2)c1=O` [N-{3-[5-Hydroxy-2-(3-methyl-butyl)-3-oxo-6-thiazol-5-yl-2,3-dihydro-pyridazin-4-yl]-1,1-dioxo-1,2-dihydro-1λ^6-benzo[1,2,4]thiadiazin-7-yl}-methanesulfonamide], the IC50 is less than 100 nM.
